Read-outs that look alike come from different tables or passages of the source. Where a SMILES comes first, the peptide text is derived from it.

Results on 13 compounds are retold here after patent US20200048308A1, “INFLUENZA VIRUS NE[…]” (priority 2016, published 2020).

Test [1] has as its target H1/Nca HA (biotinylated full length trimeric HA, A/New Caledonia/20/1999) (Influenza A virus, UniProt Q6WG00). The test is described as follows: AlphaLISA competition assay with HB80.4, H1/NCa HA. The test is classed as binding, influenza A virus H1N1 A/New Caledonia/20/1999. From the text: (§1) Binding competition studies were designed to test compounds of the invention for competition with other well characterized HA binding proteins (such as e.g. CR9114, CR6261 and HB80.4) with known epitopes on HA. The epitopes where either located at the stem of the HA (viral membrane proximal part of HA) or, for control purposes, at the head of HA (viral membrane distal part of HA). If competition was observed, it was assumed that both molecules bind to a similar or at least overlapping epitope at the surface of HA. Competition with a HA head- and stem-binder was interpreted as unspecific binding.
(§2) Hereto an AlphaLISA competition assay (Perkin Elmer) was established which relied on biotinylated full length and trimeric HA proteins (Protein Sciences, 10 μL, 0.5 nM final concentration in 50 μL) bound by HA-specific binders. The interaction between HA and the binder was detected after 1 h incubation at room temperature (RT) with two beads, a streptavidin donor bead recognizing HA (10 μL of 10 μg/mL) and an anti Fc bead (10 μg/mL) recognizing the IgGs used. If after an additional hour of incubation at RT the excited donor bead (680 nm) and acceptor bead are in close proximity, an energy transfer (singlet oxygen) can be measured as a luminescence signal of the acceptor bead (Perkin Elmer EnVision plate reader). The signal intensity in this homogeneous assay format is directly proportional to the binding strength (affinity/avidity) between both binding partners.
In general terms: Bead proximity is the source of the signal in Alpha formats.

The subject of test [2] is influenza virus A/New Caledonia (H1). As to the kind of experiment: Virus neutralization assay (VNA) on Calu-3 cells. The test is classed as cell-based, influenza A virus H1N1 A/New Caledonia/20/1999.
Test [3] concerns the target H1/Cal HA (biotinylated full length trimeric HA, A/California/07/2009) (Influenza A virus, UniProt C3W5X2). As to the kind of experiment: AlphaLISA competition assay with HB80.4, H1/Cal HA. The test is classed as binding, influenza A virus H1N1 A/California/07/2009.
Excerpt: as §1, §2

Where [4] appears, read: ALC_H1_NCa_HB80.4 calculated pIC50, AlphaLISA competition with HB80.4 on H1 NCa HA, 0.5 nM HA.

Take `CSCC[C@@H]1NC(=O)CNC(=O)CNC(=O)[C@H](C)NC(=O)[C@H](C(C)C)NC(=O)CNC(=O)[C@H](CC(C)C)NC(=O)[C@@H]2CCCN2C(=O)[C@H](CC(=O)O)NC(=O)[C@H](CCC(=O)O)NC(=O)[C@H](Cc2ccc(O)cc2)NC(=O)[C@H](CC(C)C)NC(=O)[C@@H](NC(=O)CCC(=O)O)CSSC[C@@H](C(N)=O)NC(=O)CNC1=O` [CP141069, Suc-Cys-Leu-Tyr-Glu-Asp-Pro-Leu-Gly-Val-Ala-Gly-Gly-Met-Gly-Cys-NH2]: the concentration for half-maximal inhibition (IC50) was 0.158 µM in test [1] (setting [4]) and 0.316 µM in test [3]. Further, the “VNA_H1_NCa_Calu3 pIC50” value in test [2] (Calu-3 cells, 5 TCID50/50 μL virus, 4 days, NP ELISA readout) is reported as 6.1.

Take `CSCC[C@@H]1NC(=O)CNC(=O)CNC(=O)[C@H](C)NC(=O)[C@H](C(C)C)NC(=O)CNC(=O)[C@H](CC(C)C)NC(=O)[C@@H]2CCCN2C(=O)[C@H](CC(=O)O)NC(=O)[C@H](CCC(=O)O)NC(=O)[C@H](Cc2ccc(O)cc2)NC(=O)[C@@H](NC(=O)CCC(=O)O)CSSC[C@@H](C(N)=O)NC1=O` [CP141070, Suc-Cys-Tyr-Glu-Asp-Pro-Leu-Gly-Val-Ala-Gly-Gly-Met-Cys-NH2]: the IC50 in test [1] was 3.98 µM; in test [3], 6.31 µM. For the same compound, the “VNA_H1_NCa_Calu3 pIC50” value in test [2] was 4.4.

With `CSCC[C@@H]1NC(=O)[C@H](CCC(=O)O)NC(=O)CNC(=O)[C@H](C)NC(=O)[C@H](C(C)C)NC(=O)CNC(=O)[C@H](CC(C)C)NC(=O)[C@@H]2CCCN2C(=O)[C@H](CC(=O)O)NC(=O)[C@H](CCCNC(=N)N)NC(=O)[C@H](Cc2ccc(O)cc2)NC(=O)[C@H](CC(C)C)NC(=O)[C@@H](NC(=O)CCC(=O)O)CSSC[C@@H](C(N)=O)NC(=O)CNC1=O` [CP141071, Suc-Cys-Leu-Tyr-Arg-Asp-Pro-Leu-Gly-Val-Ala-Gly-Glu-Met-Gly-Cys-NH2] (HELM PEPTIDE1{[O=C(O)CCC(=O)[*:2]].C.L.Y.R.D.P.L.G.V.A.G.E.M.G.C.[am]}$PEPTIDE1,PEPTIDE1,2:R3-16:R3$$$V2.0), the IC50 in test [1] (setting [4]) is 2 µM; in test [3] it was 0.501 µM.

As to `CSCC[C@@H]1NC(=O)[C@H](CCC(=O)O)NC(=O)CNC(=O)[C@H](C)NC(=O)[C@H](C(C)C)NC(=O)CNC(=O)[C@H](CC(C)C)NC(=O)[C@@H]2CCCN2C(=O)[C@H](CC(=O)O)NC(=O)[C@H](CCCNC(=N)N)NC(=O)[C@H](Cc2ccc(O)cc2)NC(=O)[C@@H](NC(=O)CCC(=O)O)CSSC[C@@H](C(N)=O)NC1=O` [CP141072, Suc-Cys-Tyr-Arg-Asp-Pro-Leu-Gly-Val-Ala-Gly-Glu-Met-Cys-NH2], the values for the IC50 in test [1] and in test [3] were 12.6 µM and 15.8 µM, respectively.

Regarding `CSCC[C@H](NC(=O)CNC(=O)CNC(=O)[C@H](C)NC(=O)[C@@H](NC(=O)CNC(=O)[C@H](CC(C)C)NC(=O)[C@@H]1CCCN1C(=O)[C@H](CC(=O)O)NC(=O)[C@H](CCCNC(=N)N)NC(=O)[C@H](Cc1ccc(O)cc1)NC(=O)[C@H](CC(C)C)NC(=O)[C@H](CO)NC(=O)[C@@H](NC(=O)CCC(=O)O)C(C)C)C(C)C)C(=O)NCC(=O)N[C@H](C(=O)N[C@@H](Cc1ccc(O)cc1)C(N)=O)C(C)C` [CP141073, Suc-Val-Ser-Leu-Tyr-Arg-Asp-Pro-Leu-Gly-Val-Ala-Gly-Gly-Met-Gly-Val-Tyr-NH2], the IC50 in test [1] (setting [4]) is 6.31 µM; in test [3], 2 µM.

Consider `CSCC[C@H](NC(=O)CNC(=O)CNC(=O)[C@H](C)NC(=O)[C@@H](NC(=O)CNC(=O)[C@H](CC(C)C)NC(=O)[C@@H]1CCCN1C(=O)[C@H](CC(=O)O)NC(=O)[C@H](CCC(=O)O)NC(=O)[C@H](Cc1ccc(O)cc1)NC(=O)[C@H](CC(C)C)NC(=O)[C@H](CO)NC(=O)[C@@H](NC(=O)CCC(=O)O)C(C)C)C(C)C)C(=O)NCC(=O)N[C@H](C(=O)N[C@@H](Cc1ccc(O)cc1)C(N)=O)C(C)C` [CP141074, Suc-Val-Ser-Leu-Tyr-Glu-Asp-Pro-Leu-Gly-Val-Ala-Gly-Gly-Met-Gly-Val-Tyr-NH2], for which the IC50 in test [1] (setting [4]) was 5.01 µM; in test [3], 3.98 µM.

As for `CSCC[C@H](NC(=O)[C@H](CCC(=O)O)NC(=O)CNC(=O)[C@H](C)NC(=O)[C@@H](NC(=O)CNC(=O)[C@H](CC(C)C)NC(=O)[C@@H]1CCCN1C(=O)[C@H](CC(=O)O)NC(=O)[C@H](CCCNC(=N)N)NC(=O)[C@H](Cc1ccc(O)cc1)NC(=O)[C@H](CC(C)C)NC(=O)[C@H](CO)NC(=O)[C@@H](NC(=O)CCC(=O)O)C(C)C)C(C)C)C(=O)NCC(=O)N[C@H](C(=O)N[C@@H](Cc1ccc(O)cc1)C(N)=O)C(C)C` [CP141075, Suc-Val-Ser-Leu-Tyr-Arg-Asp-Pro-Leu-Gly-Val-Ala-Gly-Glu-Met-Gly-Val-Tyr-NH2] (HELM PEPTIDE1{[O=C(O)CCC(=O)[*:2]].V.S.L.Y.R.D.P.L.G.V.A.G.E.M.G.V.Y.[am]}$$$$V2.0), the IC50 in test [1] (setting [4]) is 50.1 µM; in test [3], 10 µM.

Turning to `CCCC[C@H](NC(=O)CNC(=O)CNC(=O)[C@H](C)NC(=O)[C@@H](NC(=O)CNC(=O)[C@H](CC(C)C)NC(=O)[C@@H]1CCCN1C(=O)[C@H](CC(=O)O)NC(=O)[C@H](CCCNC(=N)N)NC(=O)[C@H](Cc1ccc(O)cc1)NC(=O)[C@H](CC(C)C)NC(=O)[C@H](CO)NC(=O)[C@@H](NC(=O)CCC(=O)O)C(C)C)C(C)C)C(=O)NCC(=O)N[C@H](C(=O)N[C@@H](Cc1ccc(O)cc1)C(N)=O)C(C)C` [CP141081, Suc-Val-Ser-Leu-Tyr-Arg-Asp-Pro-Leu-Gly-Val-Ala-Gly-Gly-Nlu-Gly-Val-Tyr-NH2], the figures for the IC50 in test [1] and in test [3] were 7.94 µM and 3.16 µM, respectively.

With `CSCC[C@@H]1NC(=O)CNC(=O)CNC(=O)[C@H](C)NC(=O)[C@H](C(C)C)NC(=O)CNC(=O)[C@H](CC(C)C)NC(=O)[C@@H]2CCCN2C(=O)[C@H](CC(=O)O)NC(=O)[C@H](CCC(=O)O)NC(=O)[C@H](Cc2ccc(O)cc2)NC(=O)[C@H](CC(C)C)NC(=O)[C@H](CO)NC(=O)[C@H]2CCCN2C(=O)CNC(=O)[C@H](C(C)C)NC(=O)CNC1=O` [CP141083, D-Pro-Ser-Leu-Tyr-Glu-Asp-Pro-Leu-Gly-Val-Ala-Gly-Gly-Met-Gly-Val-Gly], the values for the half-inhibitory concentration (IC50) in test [1] and in test [3] were 10 µM and 5.01 µM, respectively.

Take `CCCC[C@@H]1NC(=O)[C@H](CCC(=O)O)NC(=O)CNC(=O)[C@H](C)NC(=O)[C@H](C(C)C)NC(=O)CNC(=O)[C@H](CC(C)C)NC(=O)[C@@H]2CCCN2C(=O)[C@H](CC(=O)O)NC(=O)[C@H](CCCNC(=N)N)NC(=O)[C@H](Cc2ccc(O)cc2)NC(=O)[C@@H](NC(=O)CCC(=O)O)CSSC[C@@H](C(N)=O)NC1=O` [CP141089, Suc-Cys-Tyr-Arg-Asp-Pro-Leu-Gly-Val-Ala-Gly-Glu-Nlu-Cys-NH2]: the figures for the IC50 in test [1] and in test [3] were 50.1 µM and 25.1 µM, respectively.

As to `CC[C@H](NC(=O)[C@@H](NC(=O)CNC(=O)[C@H](CCCc1ccccc1)NC(=O)[C@@H]1CCCN1C(=O)[C@H](CC(=O)O)NC(=O)[C@H](CCCNC(=N)N)NC(=O)[C@H](Cc1ccc(O)cc1)NC(=O)[C@H](CC(C)C)NC(=O)[C@H](CO)NC(=O)[C@@H](NC(=O)CCC(=O)O)C(C)C)C(C)C)C(=O)NCC(=O)N[C@@H](CCC(=O)O)C(=O)N[C@@H](CCSC)C(=O)NCC(=O)N[C@H](C(=O)N[C@@H](Cc1ccc(O)cc1)C(N)=O)C(C)C` [CP141090, Suc-Val-Ser-Leu-Tyr-Arg-Asp-Pro-Ph5-Gly-Val-Abu-Gly-Glu-Met-Gly-Val-Tyr-NH2] (HELM PEPTIDE1{[O=C(O)CCC(=O)[*:2]].V.S.L.Y.R.D.P.[O=C([C@H](CCCc1ccccc1)N[*:1])[*:2]].G.V.[Abu].G.E.M.G.V.Y.[am]}$$$$V2.0), the IC50 in test [1] is 15.8 µM; in test [3] it was 10 µM.

Consider `CC[C@@H]1NC(=O)[C@H](C(C)C)NC(=O)CNC(=O)[C@H](CCCc2ccccc2)NC(=O)[C@@H]2CCCN2C(=O)[C@H](CC(=O)O)NC(=O)[C@H](CCC(=O)O)NC(=O)[C@H](Cc2ccc(O)cc2)NC(=O)[C@H](CC(C)C)NC(=O)CNC(=O)[C@H]2CCCN2C(=O)CNC(=O)[C@H](CCSC)NC(=O)CNC(=O)CNC1=O` [CP141092, Gly-Leu-Tyr-Glu-Asp-Pro-Ph5-Gly-Val-Abu-Gly-Gly-Met-Gly-D-Pro] (HELM PEPTIDE1{[Abu].G.G.M.G.[dP].G.L.Y.E.D.P.[O=C([C@H](CCCc1ccccc1)N[*:1])[*:2]].G.V}$PEPTIDE1,PEPTIDE1,1:R1-15:R2$$$V2.0), for which the IC50 in test [1] is 0.251 µM; in test [3], 0.398 µM.

With `CC[C@@H]1NC(=O)[C@H](C(C)C)NC(=O)CNC(=O)[C@H](CCCc2ccccc2)NC(=O)[C@@H]2CCCN2C(=O)[C@H](CC(=O)O)NC(=O)[C@H](CCCNC(=N)N)NC(=O)[C@H](Cc2ccc(O)cc2)NC(=O)[C@@H](NC(=O)CCC(=O)O)CSSC[C@@H](C(N)=O)NC(=O)[C@H](CCSC)NC(=O)[C@H](CCC(=O)O)NC(=O)CNC1=O` [CP141093, Suc-Cys-Tyr-Arg-Asp-Pro-Ph5-Gly-Val-Abu-Gly-Glu-Met-Cys-NH2] (HELM PEPTIDE1{[O=C(O)CCC(=O)[*:2]].C.Y.R.D.P.[O=C([C@H](CCCc1ccccc1)N[*:1])[*:2]].G.V.[Abu].G.E.M.C.[am]}$PEPTIDE1,PEPTIDE1,2:R3-14:R3$$$V2.0), the IC50 was 20 µM in test [1] and 10 µM in test [3].

By IC50 is commonly meant the concentration needed to halve the response being measured.
